Results: ChEMBL document CHEMBL4665792 (J Med Chem, 2020)

Assays:
Type in all cases: functional, cell-based
HCT-116 = assay: Antiproliferative activity against human HCT-116 cells assessed as reduction in cell viability incubated for 24 hrs by MTT assay; settings: HCT-116, 24 h
MCF7 = assay: Antiproliferative activity against human MCF7 cells assessed as reduction in cell viability incubated for 24 hrs by MTT assay; settings: MCF7, 24 h
HT-29 = assay: Antiproliferative activity against human HT-29 cells assessed as reduction in cell viability incubated for 24 hrs by MTT assay; settings: HT-29, 24 h
HepG2 = assay: Antiproliferative activity against human HepG2 cells assessed as reduction in cell viability incubated for 24 hrs by MTT assay; settings: HepG2, 24 h

Structure (SMILES)	IC50 (HCT-116) [nM]	IC50 (MCF7) [nM]	IC50 (HT-29) [nM]	IC50 (HepG2) [nM]
CCN(CC)C(=O)O[C@H]1C=CC(=O)[C@]2(C)[C@H]3CC[C@]4(C)C([C@H](C)[C@H]5CC(C)=C(C)C(=O)O5)=C[C@H](OC(C)=O)[C@@]4(O)[C@@H]3C[C@H]3O[C@]132	430	1210	750	690
CC(=O)O[C@H]1C=C([C@H](C)[C@H]2CC(C)=C(C)C(=O)O2)[C@@]2(C)CC[C@H]3[C@@H](C[C@H]4O[C@]45[C@@H](OC(=O)C=C(C)C)C=CC(=O)[C@]35C)[C@]12O	280	750	460	260
C/C=C/C=C/C(=O)O[C@H]1C=CC(=O)[C@]2(C)[C@H]3CC[C@]4(C)C([C@H](C)[C@H]5CC(C)=C(C)C(=O)O5)=C[C@H](OC(C)=O)[C@@]4(O)[C@@H]3C[C@H]3O[C@]132	1350	2620	1420	1520
CC(=O)O[C@H]1C=C([C@H](C)[C@H]2CC(C)=C(C)C(=O)O2)[C@@]2(C)CC[C@H]3[C@@H](C[C@H]4O[C@]45[C@@H](OC(=O)N4CCOCC4)C=CC(=O)[C@]35C)[C@]12O	780	3890	990	670
CC(=O)O[C@H]1C=C([C@H](C)[C@H]2CC(C)=C(C)C(=O)O2)[C@@]2(C)CC[C@H]3[C@@H](C[C@H]4O[C@]45[C@@H](OC(=O)/C=C/c4ccco4)C=CC(=O)[C@]35C)[C@]12O	430	760	450	310
CC(=O)O[C@H]1C=C([C@H](C)[C@H]2CC(C)=C(C)C(=O)O2)[C@@]2(C)CC[C@H]3[C@@H](C[C@H]4O[C@]45[C@@H](OC(=O)CNC(=O)OC(C)(C)C)C=CC(=O)[C@]35C)[C@]12O	470	2160	630	640
CC(=O)O[C@H]1C=C([C@H](C)[C@H]2CC(C)=C(C)C(=O)O2)[C@@]2(C)CC[C@H]3[C@@H](C[C@H]4O[C@]45[C@@H](OC(=O)C(C)NC(=O)OC(C)(C)C)C=CC(=O)[C@]35C)[C@]12O (stereo not given in full)	1950	4330	1790	2810
CC(=O)O[C@H]1C=C([C@H](C)[C@H]2CC(C)=C(C)C(=O)O2)[C@@]2(C)CC[C@H]3[C@@H](C[C@H]4O[C@]45[C@@H](OC(=O)C(NC(=O)OC(C)(C)C)C(C)C)C=CC(=O)[C@]35C)[C@]12O (stereo not given in full)	600	3050	800	1570
C=C(C)C(=O)O[C@H]1C=CC(=O)[C@]2(C)[C@H]3CC[C@]4(C)C([C@H](C)[C@H]5CC(C)=C(C)C(=O)O5)=C[C@H](OC(C)=O)[C@@]4(O)[C@@H]3C[C@H]3O[C@]132	1340	2110	1120	1450
CC(=O)O[C@H]1C=C([C@H](C)[C@H]2CC(C)=C(C)C(=O)O2)[C@@]2(C)CC[C@H]3[C@@H](C[C@H]4O[C@]45[C@@H](OC(=O)/C=C/C(=O)N4CCOCC4)C=CC(=O)[C@]35C)[C@]12O	460	760	430	370
CC(=O)O[C@H]1C=C([C@H](C)[C@H]2CC(C)=C(C)C(=O)O2)[C@@]2(C)CC[C@H]3[C@@H](C[C@H]4O[C@]45[C@@H](OC(=O)N4CCCC4)C=CC(=O)[C@]35C)[C@]12O	890	2140	1120	1230
C/C=C/C(=O)O[C@H]1C=CC(=O)[C@]2(C)[C@H]3CC[C@]4(C)C([C@H](C)[C@H]5CC(C)=C(C)C(=O)O5)=C[C@H](OC(C)=O)[C@@]4(O)[C@@H]3C[C@H]3O[C@]132	230	530	370	300
CC(=O)O[C@H]1C=C([C@H](C)[C@H]2CC(C)=C(C)C(=O)O2)[C@@]2(C)CC[C@H]3[C@@H](C[C@H]4O[C@]45[C@@H](O[Si](C)(C)C(C)(C)C)C=CC(=O)[C@]35C)[C@]12O	1770	6140	1060	3010
CC(=O)O[C@H]1C=C([C@H](C)[C@H]2CC(C)=C(C)C(=O)O2)[C@@]2(C)CC[C@H]3[C@@H](C[C@H]4O[C@]45[C@@H](OC(=O)/C=C/C(=O)N4CCCC4)C=CC(=O)[C@]35C)[C@]12O	200	380	250	290
CCN(C)C(=O)O[C@H]1C=CC(=O)[C@]2(C)[C@H]3CC[C@]4(C)C([C@H](C)[C@H]5CC(C)=C(C)C(=O)O5)=C[C@H](OC(C)=O)[C@@]4(O)[C@@H]3C[C@H]3O[C@]132	1970	1790	1780	2370
CC(=O)O[C@H]1C=C([C@H](C)[C@H]2CC(C)=C(C)C(=O)O2)[C@@]2(C)CC[C@H]3[C@@H](C[C@H]4O[C@]45[C@@H](OC(=O)/C=C/c4ccc(F)cc4)C=CC(=O)[C@]35C)[C@]12O	1030	1580	720	610
CC(=O)O[C@H]1C=C([C@H](C)[C@H]2CC(C)=C(C)C(=O)O2)[C@@]2(C)CC[C@H]3[C@@H](C[C@@H](O)[C@@]4(Cl)[C@@H](O)C=CC(=O)[C@]34C)[C@]12O	> 20000	> 20000	> 20000	> 20000
CC(=O)O[C@H]1C=C([C@H](C)[C@H]2CC(C)=C(C)C(=O)O2)[C@@]2(C)CC[C@H]3[C@@H](C[C@H]4O[C@]45[C@@H](OC(=O)/C=C/C(=O)N(C(C)C)C(C)C)C=CC(=O)[C@]35C)[C@]12O	350	620	190	360
CC(=O)O[C@H]1C=C([C@H](C)[C@H]2CC(C)=C(C)C(=O)O2)[C@@]2(C)CC[C@H]3[C@@H](C[C@H]4O[C@]45[C@@H](OC(=O)c4cccs4)C=CC(=O)[C@]35C)[C@]12O	3870	4080	2390	2910
CCC(C)C(NC(=O)OC(C)(C)C)C(=O)O[C@H]1C=CC(=O)[C@]2(C)[C@H]3CC[C@]4(C)C([C@H](C)[C@H]5CC(C)=C(C)C(=O)O5)=C[C@H](OC(C)=O)[C@@]4(O)[C@@H]3C[C@H]3O[C@]132 (stereo not given in full)	570	4810	1080	1660
CCC(=O)O[C@H]1C=CC(=O)[C@]2(C)[C@H]3CC[C@]4(C)C([C@H](C)[C@H]5CC(C)=C(C)C(=O)O5)=C[C@H](OC(C)=O)[C@@]4(O)[C@@H]3C[C@H]3O[C@]132	570	4810	1080	1660
CC(=O)O[C@H]1C=C([C@H](C)[C@H]2CC(C)=C(C)C(=O)O2)[C@@]2(C)CC[C@H]3[C@@H](C[C@H]4O[C@]45[C@@H](OC(=O)N4CCCCC4)C=CC(=O)[C@]35C)[C@]12O	730	4310	1380	410
CC(=O)O[C@H]1C=C([C@H](C)[C@H]2CC(C)=C(C)C(=O)O2)[C@@]2(C)CC[C@H]3[C@@H](C[C@H]4O[C@]45[C@@H](OC(=O)C4CCCN4C(=O)OC(C)(C)C)C=CC(=O)[C@]35C)[C@]12O (stereo not given in full)	670	2100	1010	1060
CC(=O)O[C@H]1C=C([C@H](C)[C@H]2CC(C)=C(C)C(=O)O2)[C@@]2(C)CC[C@H]3[C@@H](C[C@H]4O[C@]45[C@@H](OC(C)=O)C=CC(=O)[C@]35C)[C@]12O	600	3050	800	1570
CC(=O)O[C@H]1C=C([C@H](C)[C@H]2CC(C)=C(C)C(=O)O2)[C@@]2(C)CC[C@H]3[C@@H](C[C@H]4O[C@]45[C@@H](OC(=O)C(CC(C)C)NC(=O)OC(C)(C)C)C=CC(=O)[C@]35C)[C@]12O (stereo not given in full)	330	1060	780	520
CCOC(=O)/C=C/C(=O)O[C@H]1C=CC(=O)[C@]2(C)[C@H]3CC[C@]4(C)C([C@H](C)[C@H]5CC(C)=C(C)C(=O)O5)=C[C@H](OC(C)=O)[C@@]4(O)[C@@H]3C[C@H]3O[C@]132	250	280	230	240
CC(=O)O[C@H]1C=C([C@H](C)[C@H]2CC(C)=C(C)C(=O)O2)[C@@]2(C)CC[C@H]3[C@@H](C[C@H]4O[C@]45[C@@H](O)C(n4ccnc4)CC(=O)[C@]35C)[C@]12O (stereo not given in full)	> 20000	> 20000	> 20000	> 20000
CCO/C=C/C(=O)O[C@H]1C=CC(=O)[C@]2(C)[C@H]3CC[C@]4(C)C([C@H](C)[C@H]5CC(C)=C(C)C(=O)O5)=C[C@H](OC(C)=O)[C@@]4(O)[C@@H]3C[C@H]3O[C@]132	670	1210	590	570
CC(=O)O[C@H]1C=C([C@H](C)[C@H]2CC(C)=C(C)C(=O)O2)[C@@]2(C)CC[C@H]3[C@@H](C[C@H]4O[C@]45[C@@H](OC(=O)/C=C/c4cccs4)C=CC(=O)[C@]35C)[C@]12O	380	630	430	530
CCN(CC)C(=O)/C=C/C(=O)O[C@H]1C=CC(=O)[C@]2(C)[C@H]3CC[C@]4(C)C([C@H](C)[C@H]5CC(C)=C(C)C(=O)O5)=C[C@H](OC(C)=O)[C@@]4(O)[C@@H]3C[C@H]3O[C@]132	250	450	300	310
